This note sets out measurements from ChEMBL document CHEMBL1201862, “PubChem BioAssay data set” (2004).

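48-hour exposure; five concentrations; linearly interpolated endpoints. GI50: concentration for 50% inhibition of growth.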 Calls of active or inactive are those of the source. Rule as the data show it: active = GI50 up to about 1.1 µM and inactive = higher.

Some test systems named below: ACHN; SK-MEL-2; PC-3; NCI-H522; MCF7; NCI/ADR-RES; RXF 393; KM12; NCI-H23; SNB-75; SW-620; OVCAR-8; HCC 2998; BT-549; M14; 786-0; MDA-MB-435; SR; SK-OV-3.
Assay in all cases: inhibition of tumour cell growth, NCI panel, 48 h

With `COc1c(C)c(C/C=C(\C)CCCCO[Si](c2ccccc2)(c2ccccc2)C(C)(C)C)c(OC)c(OC)c1OC`, the GI50 with ACHN was 16.2 µM (inactive); in the test on SK-MEL-2, > 100 µM (inactive); in the test with PC-3, > 85.7 µM (inactive); in the test on NCI-H522 it was 50.5 µM (inactive); in the test with MCF7, > 46.5 µM (inactive); in the test with NCI/ADR-RES, 27 µM (inactive). For the same molecule, the GI50 with RXF 393 was > 100 µM (inactive); in the test with KM12, 14.8 µM (inactive); in the test with NCI-H23 it was 19.6 µM (inactive); in the test with SNB-75, > 46.3 µM (inactive); in the test with SW-620 it was 45.6 µM (inactive); with OVCAR-8 it was 20.2 µM (inactive). Further, the GI50 with HCC 2998 was 41.8 µM (inactive); in the test on BT-549, > 46.5 µM (inactive); with M14, > 46.5 µM (inactive); with 786-0, 22.7 µM (inactive); in the test with MDA-MB-435, > 46.5 µM (inactive); in the test on SR, 43.2 µM (inactive). In addition, in the test with SK-OV-3, the GI50 was > 46.5 µM (inactive).

With `O=C1C(c2c(O)[nH]c3ccccc23)=Nc2ccc(Br)cc21`, the GI50 in the test on ACHN is 14.5 µM (inactive); in the test on SK-MEL-2, 29.8 µM (inactive); in the test on PC-3, 14.8 µM (inactive); in the test with NCI-H522 it was 28.5 µM (inactive); in the test on MCF7 it was 1.24 µM (inactive); in the test with NCI/ADR-RES, 37.4 µM (inactive). In addition, the GI50 with RXF 393 was 12.9 µM (inactive); with KM12, 17.1 µM (inactive); in the test on NCI-H23, 51.8 µM (inactive); with SNB-75, 14.6 µM (inactive); in the test on SW-620 it was 39.6 µM (inactive); with OVCAR-8 it was 15.1 µM (inactive). Moreover, the GI50 in the test with HCC 2998 is 25.6 µM (inactive); in the test with BT-549 it was 28.2 µM (inactive); in the test with M14 it was 93.5 µM (inactive); with 786-0, 9.62 µM (inactive); in the test with MDA-MB-435, 61.8 µM (inactive); with SR, 26.5 µM (inactive). The GI50 in the test on SK-OV-3 is 18.4 µM (inactive).

In the case of `O=C(O)CCSC1=NCCN1`, the GI50 in the test on ACHN, in the test on SK-MEL-2, in the test on PC-3, with NCI-H522, in the test on MCF7 and in the test on NCI/ADR-RES was > 100 µM (inactive) each time. In addition, the GI50 with RXF 393, in the test on KM12, in the test on NCI-H23, with SNB-75, in the test on SW-620 and with OVCAR-8 was > 100 µM (inactive) each time. In addition, the GI50 with HCC 2998, in the test on BT-549, in the test on M14, in the test on 786-0, in the test on MDA-MB-435 and in the test with SR was > 100 µM (inactive) each time. Moreover, the GI50 with SK-OV-3 was > 100 µM (inactive).

`N#CC1=C(N)N(/N=C/c2ccccc2)C(c2ccccc2)C1(C#N)C#N` (stereo not drawn): the GI50 with ACHN is 4.3 µM (inactive); in the test with SK-MEL-2, 17.2 µM (inactive); in the test on PC-3 it was 16.4 µM (inactive); with NCI-H522 it was 4.38 µM (inactive); in the test on MCF7 it was 8.17 µM (inactive); with NCI/ADR-RES, 21.6 µM (inactive). Also, the GI50 was 3.39 µM (inactive) with RXF 393; 22.8 µM (inactive) with KM12; 17.9 µM (inactive) in the test with NCI-H23; 16.9 µM (inactive) with SNB-75; 5.18 µM (inactive) in the test on SW-620; 18.7 µM (inactive) with OVCAR-8. For the same molecule, the GI50 in the test with HCC 2998 was 19.6 µM (inactive); in the test with BT-549, 14.6 µM (inactive); with M14, 12.6 µM (inactive); in the test with 786-0 it was 4.7 µM (inactive); in the test on MDA-MB-435 it was 18.2 µM (inactive); with SR it was 2.26 µM (inactive). For the same molecule, the GI50 in the test on SK-OV-3 is 12.6 µM (inactive).

For the molecule `ClCCCCCc1c2nc(c(CCCCCCl)c3ccc([nH]3)c(CCCCCCl)c3nc(c(CCCCCCl)c4ccc1[nH]4)C=C3)C=C2`, the GI50 in the test on ACHN, in the test with SK-MEL-2, in the test on PC-3, with NCI-H522, with MCF7 and in the test on NCI/ADR-RES was > 100 µM (inactive) in each case. For the same molecule, the GI50 in the test on RXF 393 was > 100 µM (inactive); in the test with KM12 it was > 100 µM (inactive); in the test on NCI-H23, > 100 µM (inactive); in the test on SNB-75 it was 83.4 µM (inactive); in the test on SW-620, > 100 µM (inactive); with OVCAR-8 it was > 100 µM (inactive). Moreover, the GI50 with HCC 2998, in the test with BT-549, in the test with M14, in the test on 786-0, with MDA-MB-435 and in the test with SR was > 100 µM (inactive) each time. Besides, the GI50 with SK-OV-3 is > 100 µM (inactive).

As for `CC(=O)O[C@H]1CC[C@H]2[C@@H]3CCC4C(C)=NNC(=O)C4[C@H]3CC[C@]12C` (stereo partly drawn), the GI50 was 57.5 µM (inactive) in the test on ACHN; > 75.2 µM (inactive) with SK-MEL-2; > 100 µM (inactive) with PC-3; 34 µM (inactive) in the test on NCI-H522; > 100 µM (inactive) in the test with MCF7; 45.4 µM (inactive) with NCI/ADR-RES. The GI50 in the test on RXF 393 was 56.6 µM (inactive); in the test on KM12 it was > 100 µM (inactive); in the test on NCI-H23, > 60.7 µM (inactive); with SNB-75, 14.2 µM (inactive); in the test on SW-620, > 100 µM (inactive); with OVCAR-8, 38 µM (inactive). Moreover, the GI50 with HCC 2998 was > 100 µM (inactive); with BT-549 it was > 45.3 µM (inactive); in the test on M14 it was > 100 µM (inactive); in the test with 786-0, 40.3 µM (inactive); in the test on MDA-MB-435, > 100 µM (inactive); in the test on SR it was > 100 µM (inactive). For the same molecule, the GI50 in the test on SK-OV-3 was > 95.1 µM (inactive).

As to `O=C1Nc2ccc(S(=O)(=O)NCCO)cc2/C1=C1/Nc2ccccc2C1=O`, the GI50 with ACHN is 6.97 µM (inactive); in the test on SK-MEL-2 it was 4.16 µM (inactive); in the test on PC-3, 12.2 µM (inactive); in the test with NCI-H522 it was 1.86 µM (inactive); in the test on MCF7 it was 0.475 µM (active); in the test on NCI/ADR-RES, > 100 µM (inactive). Further, the GI50 is 4.36 µM (inactive) in the test with RXF 393; 0.385 µM (active) in the test with KM12; 28.4 µM (inactive) in the test on NCI-H23; 1.97 µM (inactive) in the test with SNB-75; 11.9 µM (inactive) with SW-620; 11 µM (inactive) in the test on OVCAR-8. The GI50 with HCC 2998 is 53 µM (inactive); in the test with BT-549, 3.98 µM (inactive); with M14 it was > 100 µM (inactive); with 786-0, 9.31 µM (inactive); with MDA-MB-435, > 100 µM (inactive); in the test with SR, 1.01 µM (active). The GI50 in the test with SK-OV-3 is 5.42 µM (inactive).
